According to article PMC10046037, “GABRG2 Variants Associated with Febrile Seizures” (Biomolecules, 2023):

Target: T1, α1β3γ2 GABAA receptor, γ2F464S variant (Homo sapiens, UniProt P14867+P18507+P28472, F464S)
T1 construct: expressed in transfected cells; host or cells: HEK293T
T1 sequence (P14867 28-456): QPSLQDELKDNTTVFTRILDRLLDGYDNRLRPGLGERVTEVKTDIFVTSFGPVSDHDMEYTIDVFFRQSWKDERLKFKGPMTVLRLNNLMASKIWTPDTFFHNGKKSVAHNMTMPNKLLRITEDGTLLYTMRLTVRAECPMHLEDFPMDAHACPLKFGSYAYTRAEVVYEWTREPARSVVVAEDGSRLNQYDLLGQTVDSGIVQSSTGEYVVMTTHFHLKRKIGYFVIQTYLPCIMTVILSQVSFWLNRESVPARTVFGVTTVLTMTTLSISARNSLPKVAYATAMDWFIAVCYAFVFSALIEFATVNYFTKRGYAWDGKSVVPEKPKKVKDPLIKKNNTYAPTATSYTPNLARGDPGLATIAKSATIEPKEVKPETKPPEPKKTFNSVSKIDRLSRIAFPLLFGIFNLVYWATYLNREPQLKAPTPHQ
T1 sequence (P28472 26-473 isoform P28472-2): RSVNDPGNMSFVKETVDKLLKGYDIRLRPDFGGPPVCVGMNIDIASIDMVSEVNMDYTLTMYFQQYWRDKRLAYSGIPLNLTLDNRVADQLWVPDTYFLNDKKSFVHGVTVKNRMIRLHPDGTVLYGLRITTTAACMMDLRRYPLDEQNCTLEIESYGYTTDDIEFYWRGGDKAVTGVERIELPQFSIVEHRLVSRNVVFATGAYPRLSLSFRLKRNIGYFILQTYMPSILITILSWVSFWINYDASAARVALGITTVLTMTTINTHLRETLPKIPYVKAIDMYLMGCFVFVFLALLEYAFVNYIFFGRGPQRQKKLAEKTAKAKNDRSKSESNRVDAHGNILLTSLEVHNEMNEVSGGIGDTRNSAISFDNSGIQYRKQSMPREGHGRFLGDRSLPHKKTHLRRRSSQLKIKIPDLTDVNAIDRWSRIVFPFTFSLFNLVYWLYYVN
T1 sequence (P18507 40-475 F464S): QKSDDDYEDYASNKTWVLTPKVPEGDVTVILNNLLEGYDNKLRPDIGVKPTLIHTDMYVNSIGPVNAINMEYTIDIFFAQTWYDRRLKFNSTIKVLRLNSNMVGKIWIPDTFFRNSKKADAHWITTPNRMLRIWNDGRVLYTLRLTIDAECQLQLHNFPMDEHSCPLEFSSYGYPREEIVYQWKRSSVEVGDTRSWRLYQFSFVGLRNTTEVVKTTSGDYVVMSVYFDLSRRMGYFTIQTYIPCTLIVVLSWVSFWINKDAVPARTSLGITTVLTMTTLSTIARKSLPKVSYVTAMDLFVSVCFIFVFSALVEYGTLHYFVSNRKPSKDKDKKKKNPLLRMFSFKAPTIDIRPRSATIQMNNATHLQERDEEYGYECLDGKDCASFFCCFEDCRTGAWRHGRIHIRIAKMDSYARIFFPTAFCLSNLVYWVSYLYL
Assay: Automated patch clamp of GABA-elicited currents (SyncroPatch 384PE), γ2F464S
Format: cell-based
Conditions: mean
Method: The coding sequences of human α1 (GABRA1, NM_000806), β3 (GABRB3, NM_021912), and γ2 (GABRG2, NM_198904.2) GABAAR subunits were subcloned into the pcDNA3.1 expression vectors (Invitrogen, Waltham, MA, USA).
HEK293T cells (ATCC, CRL-11268) were cultured at 37 °C in a humidified 5% CO2 incubator and maintained in Dulbecco’s modified Eagle’s medium (Invitrogen) supplemented with 10% fetal bovine serum (Life Technologies, Carlsbad, CA, USA), and 100 IU/mL of penicillin/streptomycin (Life Technologies). For the expression experiments, 4 × 10^5 cells were transfected using polyethylenimine (PEI) reagent (40 kD, Polysciences, Warrington, PA, USA) at a DNA: to transfection reagent ratio of 1:2.5 and harvested 36 h after transfection. To express WT and variant α1β3γ2 receptors, a total of 3 µg of α1, β3, and γ2 (WT or mutant) subunit cDNAs were transfected at a ratio of 1:1:1 into 60 mm culture dishes. For the mock-transfected condition, an empty pcDNA3.1 vector was added for a final cDNA transfection amount of 3 μg. For the electrophysiology experiments, 2.5 × 10^5 cells were plated in 100 mm culture dishes and transfected after 24 h with 3 μg of cDNA of each α1, β3, γ2 (wild-type or mutant) subunit, using X-tremeGENE HP DNA transfection Reagent (Roche Diagnostics, Basel, Switzerland), following the manufacturer’s protocol. Recordings were obtained forty-eight hours after transfection.
Whole-cell patch clamp recordings were conducted according to the manufacturer’s standard procedure for the SyncroPatch 384 [31]. Whole-cell voltage-clamp recordings were performed at room temperature on HEK293T cells 48 h after transfection with GABAAR subunits, using the SyncroPatch 384PE (Nanion Technologies, Munich, Germany). Cells, at a concentration of 400,000 cells/mL, were harvested in suspension in external solution containing 140 mM of NaCl, 2 mM of CaCl2, 4 mM of KCl, 1 mM of MgCl2, 5 mM of glucose, and 10 mM of HEPES (pH 7.4 with NaOH, 298 mOsm). The cells were loaded in a multi-hole (4 holes per well) 384-well Nanion patch clamp (NPC) chip with a thick borosilicate glass bottom and an average resistance pore size of […]. Built-in electrophysiological protocols were used, and the data were digitized using PatchControl 384 (Nanion Technologies) application. Using PatchControl 384, electrophysiological parameters, such as seal resistance, capacitance, and series resistance, were determined for each well after the application of a test pulse, and subsequently monitored over time. […] The currents were normalized to the maximal response of each well, and the concentration–response curves were calculated from single-point additions. The EC50 values for each variant or wild-type receptor were calculated across multiple wells for each experimental condition.

Deactivation (1 mM GABA for 5 ms, HEK293T, -80 mV): 332.6 ms
IMAX (maximal GABA-evoked peak current) (1 mM GABA for 5 ms, HEK293T): 0.96 nA
IMAX variant/IMAX WT (1 mM GABA): 47.93%
Rise Time (10–90% rise time, 1 mM GABA for 5 ms, HEK293T): 29.22 ms
Structure (SMILES): NCCCC(=O)O [GABA, γ-aminobutyric acid]
